# Measurements: patent US6395256B1 (priority 1997, dated 2002)
# Several values for one entry are separate records, joined by “and”; a condition that tells them apart may be missing. Identical values can stand only once.
# Biological target: T1, reduced SAH hydrolase (Bos taurus, UniProt Q3MHL4)
# T1 construct: SAH hydrolase is purified with classical chromatographical methods to homogeneity from organs e.g. from bovine kidney; from tissue; host or cells: bovine kidney
# T1 sequence (Q3MHL4 2-432 limits assumed): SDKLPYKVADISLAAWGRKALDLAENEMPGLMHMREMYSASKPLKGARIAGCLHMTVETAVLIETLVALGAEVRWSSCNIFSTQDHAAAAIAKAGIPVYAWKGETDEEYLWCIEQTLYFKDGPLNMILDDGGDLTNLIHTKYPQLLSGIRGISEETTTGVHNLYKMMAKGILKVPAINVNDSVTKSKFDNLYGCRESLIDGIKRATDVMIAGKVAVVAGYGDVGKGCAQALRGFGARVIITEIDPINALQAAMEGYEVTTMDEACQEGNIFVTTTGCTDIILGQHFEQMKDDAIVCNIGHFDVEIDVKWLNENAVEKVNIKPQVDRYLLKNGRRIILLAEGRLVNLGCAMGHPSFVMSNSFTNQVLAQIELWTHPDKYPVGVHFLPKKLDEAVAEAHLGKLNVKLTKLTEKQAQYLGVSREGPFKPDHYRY
# Assay: 3H-adenosine displacement using reduced SAH hydrolase
# Type: binding, bovine
# Details: not given
# Method: 100 μl reduced SAH hydrolase (1 μg/300 μl)
# 50 μl buffer—20 mM Tris, 40 mM Hepes pH 7.0
# Therefore the samples are incubated over night. The assay mixture is separated through nitrocellulose filters with a filtration equipment.
row,Compound,EC50
1,Cn1c(=O)c2[nH]cnc2n(C)c1=O [theophylline],> 100 µM

# Same assay, conditions: reduced SAH hydrolase; read-out: EC50 values of 3H-adenosine displacement, reduced SAH hydrolase
row,Compound,EC50
1,Nc1ncnc2c1ncn2[C@H]1C[C@H](O)[C@@H](CO)O1 [2′-deoxyadenosine],0.63 µM
2,Nc1ncnc2c1ncn2[C@@H]1O[C@H](COP(=O)(O)OP(=O)(O)O)[C@@H](O)[C@H]1O [ADP],> 100 µM
3,Nc1ncnc2c1ncn2[C@@H]1O[C@H](COP(=O)(O)O)[C@@H](O)[C@H]1O [AMP],100 µM and > 100 µM
4,CCNC(=O)[C@H]1O[C@@H](n2cnc3c(N)ncnc32)[C@H](O)[C@@H]1O [NECA],> 100 µM
5,"Nc1ncnc2c1ncn2[C@@H]1O[C@H](CSCC[C@H](N)C(=O)O)[C@@H](O)[C@H]1O [SAH, S-adenosylhomocysteine]",0.4 µM
6,Nc1ncnc2nc[nH]c12 [adenine],> 100 µM
7,N[C@@H](CCS)C(=O)O [homocysteine],5 µM
8,OC[C@H]1O[C@@H](n2cnc3c(O)ncnc32)[C@H](O)[C@@H]1O [inosine],10 µM
9,diadenosine-dialdehyde,10 µM

# Biological target: T2, active SAH hydrolase (Bos taurus, UniProt Q3MHL4)
# T2 construct: SAH hydrolase is purified with classical chromatographical methods to homogeneity from organs e.g. from bovine kidney; from tissue; host or cells: bovine kidney
# T2 sequence (Q3MHL4 2-432 limits assumed): T1 sequence (Q3MHL4 2-432 limits assumed)
# Assay: 3H-adenosine displacement using active SAH hydrolase
# Type: binding, bovine
# Details: not given
# Method: SAH hydrolase is purified with classical chromatographical methods to homogeneity from organs e.g. from bovine kidney. Fresh bovine kidney (450 g), obtained from the local slaughterhouse were homogenized in two volumes of 50 mM potassium phosphate buffer pH 7.0, 1 mM DTT, 1 mM EDTA and 10 mM PMSF. The homogenate was centrifuged at 20000×g for 60 min. […] After centrifugation at 20000×g for 30 min the precipitate was disolved in 300-400 ml 20 mM Tris/HCl pH 7.5, 1 mM DTT and 1 mM EDTA and dialyzed against the same buffer.
row,Compound,EC50
1,Cn1c(=O)c2[nH]cnc2n(C)c1=O [theophylline],> 100 µM

# Same assay, conditions: active SAH hydrolase; read-out: EC50 values of 3H-adenosine displacement, active SAH hydrolase
row,Compound,EC50
1,Nc1ncnc2c1ncn2[C@H]1C[C@H](O)[C@@H](CO)O1 [2′-deoxyadenosine],0.094 µM
2,Nc1ncnc2c1ncn2[C@@H]1O[C@H](COP(=O)(O)OP(=O)(O)O)[C@@H](O)[C@H]1O [ADP],10 µM
3,Nc1ncnc2c1ncn2[C@@H]1O[C@H](COP(=O)(O)O)[C@@H](O)[C@H]1O [AMP],10 µM
4,CCNC(=O)[C@H]1O[C@@H](n2cnc3c(N)ncnc32)[C@H](O)[C@@H]1O [NECA],0.24 µM
5,"Nc1ncnc2c1ncn2[C@@H]1O[C@H](CSCC[C@H](N)C(=O)O)[C@@H](O)[C@H]1O [SAH, S-adenosylhomocysteine]",0.246 µM
6,Nc1ncnc2nc[nH]c12 [adenine],11.5 µM
7,N[C@@H](CCS)C(=O)O [homocysteine],5 µM
8,OC[C@H]1O[C@@H](n2cnc3c(O)ncnc32)[C@H](O)[C@@H]1O [inosine],10 µM
9,diadenosine-dialdehyde,0.18 µM
